Values quoted from earlier work, collected in US8357659B2, “Method of treating pain or itching with APETx2 peptide toxin” (priority 2008, dated 2013).

Assays:
[1] = target: T1, heteromer ASIC1a+3 (Rattus norvegicus, UniProt O35240+P55926); conditions: relative to ASIC3 / ASIC2b+3; cited from earlier work
T1 sequence (P55926 1-526): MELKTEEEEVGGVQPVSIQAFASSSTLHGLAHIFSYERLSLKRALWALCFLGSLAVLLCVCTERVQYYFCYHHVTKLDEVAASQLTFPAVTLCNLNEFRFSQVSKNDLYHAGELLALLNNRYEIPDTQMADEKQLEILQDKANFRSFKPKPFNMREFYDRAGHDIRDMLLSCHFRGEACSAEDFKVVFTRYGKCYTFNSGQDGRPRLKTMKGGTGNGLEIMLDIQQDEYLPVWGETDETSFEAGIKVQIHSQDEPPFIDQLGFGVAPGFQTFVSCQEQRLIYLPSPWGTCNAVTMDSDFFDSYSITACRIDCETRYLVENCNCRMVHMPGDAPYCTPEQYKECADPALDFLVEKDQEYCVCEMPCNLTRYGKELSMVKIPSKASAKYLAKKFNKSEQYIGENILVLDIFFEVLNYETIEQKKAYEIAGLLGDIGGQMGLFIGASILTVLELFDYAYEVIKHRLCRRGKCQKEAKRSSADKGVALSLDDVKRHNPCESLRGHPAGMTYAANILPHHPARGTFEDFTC
T1 sequence (O35240 1-533): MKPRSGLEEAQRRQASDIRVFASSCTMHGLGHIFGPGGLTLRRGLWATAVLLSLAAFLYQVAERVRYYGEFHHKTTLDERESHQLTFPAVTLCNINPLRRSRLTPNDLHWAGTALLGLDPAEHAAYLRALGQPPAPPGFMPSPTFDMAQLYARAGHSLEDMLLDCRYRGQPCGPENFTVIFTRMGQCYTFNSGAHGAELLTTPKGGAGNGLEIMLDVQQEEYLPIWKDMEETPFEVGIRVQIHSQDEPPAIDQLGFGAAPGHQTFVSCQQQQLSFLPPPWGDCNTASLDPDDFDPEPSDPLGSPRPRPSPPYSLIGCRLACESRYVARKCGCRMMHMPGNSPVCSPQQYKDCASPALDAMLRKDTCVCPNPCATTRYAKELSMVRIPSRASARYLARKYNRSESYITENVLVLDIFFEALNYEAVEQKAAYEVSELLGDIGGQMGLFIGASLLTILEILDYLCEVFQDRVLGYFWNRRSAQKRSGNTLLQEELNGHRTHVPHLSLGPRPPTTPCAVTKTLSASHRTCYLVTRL

[2] = target: T2, heteromer ASIC2a+3 (Rattus norvegicus, UniProt O35240+Q62962); conditions: cited from earlier work
T2 sequence (Q62962 1-512): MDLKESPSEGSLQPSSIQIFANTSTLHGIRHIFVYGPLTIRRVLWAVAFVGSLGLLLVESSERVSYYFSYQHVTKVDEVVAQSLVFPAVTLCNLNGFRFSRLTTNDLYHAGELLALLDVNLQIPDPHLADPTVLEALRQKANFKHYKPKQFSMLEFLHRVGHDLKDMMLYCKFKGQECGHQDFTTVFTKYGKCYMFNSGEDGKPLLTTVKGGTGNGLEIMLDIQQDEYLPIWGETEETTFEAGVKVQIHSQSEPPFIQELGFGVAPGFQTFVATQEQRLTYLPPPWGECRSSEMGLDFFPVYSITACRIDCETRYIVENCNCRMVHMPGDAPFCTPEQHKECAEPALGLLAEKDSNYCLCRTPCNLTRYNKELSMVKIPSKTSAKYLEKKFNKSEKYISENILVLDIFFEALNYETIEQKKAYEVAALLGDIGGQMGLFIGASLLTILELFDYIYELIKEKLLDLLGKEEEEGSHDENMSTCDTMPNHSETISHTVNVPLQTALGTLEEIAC
T2 sequence (O35240 1-533): T1 sequence (O35240 1-533)

For “peptide of 42 amino acids (SEQ ID NO: 3), three disulphide bonds, from sea anemone Anthopleura elegantissima; blocks ASIC3 [APETx2]”, the “affinity for the heteromer ASIC1a+3” value [1] is given as “less affinity” and the “effect on the heteromer ASIC2a+3” value [2] is given as “does not have any effect”.
